Assay results from patent publication US20230065368A1, “INHIBITING UBIQUITIN SPECIFIC PEPTIDASE 9X” (FORMA Therapeutics, Inc., priority 2018, published 2023).
pIC50: −log10 of the molar value.

Target: USP9X (Homo sapiens, UniProt Q93008)
Experiment: Biochemical Assay for USP9X Inhibition (Ub-Rh110 fluorescence)
Settings: Biochemical Assay of Example 1, 25 nM Ub-Rh110, 30 min preincubation, Table 23 additional compounds
Method: Biochemical Assay for USP9X Inhibition
Concentration and incubation times were optimized for the maximal signal-to-background while maintaining initial velocity conditions at a fixed substrate concentration (<<Km). […] To assay plates (pre-stamped with compound) was added 3 μL 2× Enzyme. The enzyme was preincubated for 30 minutes and then treated with 3 μL of 2× Substrate. […] The slope (best fit linear regression) of the five reads was used to normalize for inhibition. For all assays, data are reported as percent inhibition compared with control wells based on the following equation: […], wherein FLU is measured Fluorescence, AveLow is average Fluorescence of no enzyme control (n=64), and AveHigh is average Fluorescence of DMSO control (n=64). IC50 values are determined by curve fitting of the standard 4 parameter logistic fitting algorithm included in the Activity Base software package: IDBS XE Designer Model205. Data are fitted using the Levenburg Marquardt algorithm.

Chain of USP9X (Q93008 whole entry, species assumed): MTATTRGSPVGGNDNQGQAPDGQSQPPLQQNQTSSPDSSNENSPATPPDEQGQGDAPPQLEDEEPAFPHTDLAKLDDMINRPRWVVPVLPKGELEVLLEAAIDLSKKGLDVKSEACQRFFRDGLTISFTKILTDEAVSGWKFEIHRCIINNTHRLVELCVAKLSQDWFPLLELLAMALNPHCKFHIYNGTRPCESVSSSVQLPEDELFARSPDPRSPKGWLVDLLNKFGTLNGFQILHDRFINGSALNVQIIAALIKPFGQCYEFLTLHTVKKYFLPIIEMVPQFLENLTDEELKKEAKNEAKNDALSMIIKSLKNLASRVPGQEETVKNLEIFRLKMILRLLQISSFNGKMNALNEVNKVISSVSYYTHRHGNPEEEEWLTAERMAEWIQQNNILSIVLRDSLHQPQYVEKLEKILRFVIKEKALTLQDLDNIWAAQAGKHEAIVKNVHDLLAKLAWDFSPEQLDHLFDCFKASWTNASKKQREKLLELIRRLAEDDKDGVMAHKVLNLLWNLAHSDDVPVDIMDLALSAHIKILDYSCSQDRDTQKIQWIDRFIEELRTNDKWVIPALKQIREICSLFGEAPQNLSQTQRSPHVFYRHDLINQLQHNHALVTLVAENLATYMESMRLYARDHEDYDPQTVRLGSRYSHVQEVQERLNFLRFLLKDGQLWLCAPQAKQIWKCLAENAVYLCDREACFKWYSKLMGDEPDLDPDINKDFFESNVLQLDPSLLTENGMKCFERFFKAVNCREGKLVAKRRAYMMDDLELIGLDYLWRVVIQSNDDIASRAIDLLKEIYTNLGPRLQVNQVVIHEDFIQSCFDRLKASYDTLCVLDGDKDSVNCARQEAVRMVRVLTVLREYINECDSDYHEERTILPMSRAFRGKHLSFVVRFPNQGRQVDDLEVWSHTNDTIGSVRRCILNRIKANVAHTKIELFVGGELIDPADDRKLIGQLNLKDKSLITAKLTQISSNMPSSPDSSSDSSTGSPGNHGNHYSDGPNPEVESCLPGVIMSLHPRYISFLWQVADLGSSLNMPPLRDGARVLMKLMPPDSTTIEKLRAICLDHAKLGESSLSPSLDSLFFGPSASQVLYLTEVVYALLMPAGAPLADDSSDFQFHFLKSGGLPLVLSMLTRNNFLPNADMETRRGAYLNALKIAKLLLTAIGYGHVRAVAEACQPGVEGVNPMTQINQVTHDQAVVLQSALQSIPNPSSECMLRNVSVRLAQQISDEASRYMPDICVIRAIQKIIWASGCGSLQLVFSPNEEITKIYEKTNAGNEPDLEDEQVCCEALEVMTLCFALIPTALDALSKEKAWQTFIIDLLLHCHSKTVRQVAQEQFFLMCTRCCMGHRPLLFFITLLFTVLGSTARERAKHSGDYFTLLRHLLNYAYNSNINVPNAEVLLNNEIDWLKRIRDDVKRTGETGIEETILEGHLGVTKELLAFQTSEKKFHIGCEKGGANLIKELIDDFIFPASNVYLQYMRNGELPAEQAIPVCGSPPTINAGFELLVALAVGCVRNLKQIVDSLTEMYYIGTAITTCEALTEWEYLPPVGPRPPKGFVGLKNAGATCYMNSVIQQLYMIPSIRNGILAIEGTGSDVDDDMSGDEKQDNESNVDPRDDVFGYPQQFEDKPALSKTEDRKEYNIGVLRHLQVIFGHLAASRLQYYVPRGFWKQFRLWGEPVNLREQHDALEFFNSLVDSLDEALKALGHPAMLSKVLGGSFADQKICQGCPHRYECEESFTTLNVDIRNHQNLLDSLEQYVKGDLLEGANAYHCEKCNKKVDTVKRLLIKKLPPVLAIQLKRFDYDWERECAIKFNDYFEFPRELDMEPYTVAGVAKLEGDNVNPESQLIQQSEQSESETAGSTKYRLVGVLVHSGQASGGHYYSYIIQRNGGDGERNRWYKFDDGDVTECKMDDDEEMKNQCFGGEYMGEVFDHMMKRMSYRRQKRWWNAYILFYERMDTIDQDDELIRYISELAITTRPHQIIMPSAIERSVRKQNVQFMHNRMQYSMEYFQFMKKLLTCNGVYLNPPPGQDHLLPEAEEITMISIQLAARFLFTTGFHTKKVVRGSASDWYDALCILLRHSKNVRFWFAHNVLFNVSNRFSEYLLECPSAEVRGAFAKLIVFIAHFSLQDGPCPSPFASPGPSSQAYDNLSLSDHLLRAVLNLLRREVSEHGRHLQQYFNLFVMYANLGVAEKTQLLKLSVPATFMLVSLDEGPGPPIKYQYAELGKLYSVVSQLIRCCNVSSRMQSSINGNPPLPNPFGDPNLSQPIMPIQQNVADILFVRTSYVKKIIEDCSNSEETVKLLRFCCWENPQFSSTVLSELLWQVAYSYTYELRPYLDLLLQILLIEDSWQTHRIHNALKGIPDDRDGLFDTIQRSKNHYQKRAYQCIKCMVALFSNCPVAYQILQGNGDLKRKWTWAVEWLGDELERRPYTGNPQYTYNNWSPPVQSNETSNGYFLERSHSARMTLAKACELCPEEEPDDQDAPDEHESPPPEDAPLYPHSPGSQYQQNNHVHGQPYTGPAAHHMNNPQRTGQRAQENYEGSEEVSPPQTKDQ

SMILES | pIC50
O=C([C@@H](CO)c1ccccc1)N1CC2=C(C1)CN(S(=O)(=O)c1cnc3c(c1)OCCO3)C2 [Example C-7] | 5.70 to 6.70
O=C([C@H](CO)c1ccccc1)N1CC2=C(C1)CN(S(=O)(=O)c1cnc3c(c1)OCCO3)C2 [Example C-8] | 4.60 to 5.70
